According to patent publication US4661603A, “Imidazole derivatives” (Yoshitomi Pharmaceutical Industries, Ltd., priority 1982, dated 1987):

Columns and labels:
[1] = system: platelet aggregation; assay: Inhibitory activities on platelet aggregation (ex vivo, arachidonic acid, after oral administration to rabbits); type: in vivo, rabbit; conditions: Oryctolagus cuniculus, 1 h, blood one hour after administration, read-out: Inhibitory activities on platelet aggregation, Rate of inhibition
Method: According to the method described in Journal of Physiology, vol. 162, page 67 (1962), the inhibitory activities of compounds of this invention on platelet aggregation were measured from the changes in transmittance with an aggregometer (Rikadenki Electronics Co., Japan).
Before and one hour after the oral administration of test compounds to rabbits, blood was collected. The blood was mixed with sodium citrate in the ratio of 9:1 by volume. Platelet rich plasma (PRP) was prepared by centrifuging the citrated blood at 1000 rpm for 10 minutes, and platelet poor plasma (PPP), by centrifuging the remaining citrated blood at 3000 rpm for 10 minutes.
The transmittance of aggregometer was adjusted to 0 and 100% with PRP and PPP, respectively. To 0.3 ml of a PRP sample was added 0.003 ml of arachidonic acid solution. The changes in transmittance of the mixture were measured using the aggregometer with stirring at 1200 rpm.
Inhibitory activities on platelet aggregation were assessed as % inhibition by comparing the rate of aggregation of treated PRP with that of blood collected before the oral administration of test compounds.

[2] = target: T1, cyclo-oxygenase (Bos taurus, UniProt O62664); assay: Inhibitory effect on cyclo-oxygenase; type: biochemical; conditions: in vitro; bovine seminal vesicle microsomes; 104.3 μM 14C-arachidonic acid, 25° C., 10 minutes; read-out: Inhibitory effect on cyclo-oxygenase (50% inhibitory molar concentration)
T1 construct: bovine seminal vesicle microsomes; from tissue; host or cells: bovine seminal vesicle microsomes
T1 sequence (O62664 25-600): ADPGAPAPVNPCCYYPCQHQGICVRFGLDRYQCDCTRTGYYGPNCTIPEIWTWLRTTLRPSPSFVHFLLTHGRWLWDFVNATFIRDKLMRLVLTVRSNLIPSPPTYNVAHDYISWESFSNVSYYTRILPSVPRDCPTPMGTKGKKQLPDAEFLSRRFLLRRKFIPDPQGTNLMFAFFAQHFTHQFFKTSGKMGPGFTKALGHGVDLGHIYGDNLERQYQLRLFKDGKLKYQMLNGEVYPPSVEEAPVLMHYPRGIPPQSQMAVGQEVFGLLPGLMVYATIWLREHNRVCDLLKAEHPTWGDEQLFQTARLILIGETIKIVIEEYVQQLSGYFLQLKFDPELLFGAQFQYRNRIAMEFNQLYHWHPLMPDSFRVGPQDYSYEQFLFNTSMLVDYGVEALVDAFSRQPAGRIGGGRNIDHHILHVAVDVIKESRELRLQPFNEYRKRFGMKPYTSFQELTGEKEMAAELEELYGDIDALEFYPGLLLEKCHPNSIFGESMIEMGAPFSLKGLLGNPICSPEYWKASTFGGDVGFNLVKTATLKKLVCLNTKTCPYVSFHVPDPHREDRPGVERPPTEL
Method: (§1) Effects of test compounds on thromboxane synthetase, cyclo-oxygenase and prostacyclin synthetase were examined in vitro by the following methods:
According to the method described in Proceedings of National Academy of Sciences, U.S.A., vol. 71, page 3645 (1974), bovine seminal vesicle microsomes were incubated with 104.3 μM ^14 C-arachidonic acid at 25° C. for 10 minutes. Prostaglandin E2 thus formed was separated and assayed using the same method as (a).
The inhibitory activities of test compounds on cyclo-oxygenase were assessed by comparing the contents of prostaglandin E2 formed in the presence and absence of test compounds.

[3] = target: T2, thromboxane synthetase (Homo sapiens, UniProt P24557); assay: Inhibitory effect on thromboxane synthetase; type: biochemical; conditions: in vitro; human platelet microsomes; 4.3 μM 14C-arachidonic acid, 25° C., 5 minutes; read-out: Inhibitory effect on thromboxane synthetase (50% inhibitory molar concentration)
T2 construct: incubating human platelet microsomes; from tissue; host or cells: human platelet microsomes
T2 sequence (P24557 1-533): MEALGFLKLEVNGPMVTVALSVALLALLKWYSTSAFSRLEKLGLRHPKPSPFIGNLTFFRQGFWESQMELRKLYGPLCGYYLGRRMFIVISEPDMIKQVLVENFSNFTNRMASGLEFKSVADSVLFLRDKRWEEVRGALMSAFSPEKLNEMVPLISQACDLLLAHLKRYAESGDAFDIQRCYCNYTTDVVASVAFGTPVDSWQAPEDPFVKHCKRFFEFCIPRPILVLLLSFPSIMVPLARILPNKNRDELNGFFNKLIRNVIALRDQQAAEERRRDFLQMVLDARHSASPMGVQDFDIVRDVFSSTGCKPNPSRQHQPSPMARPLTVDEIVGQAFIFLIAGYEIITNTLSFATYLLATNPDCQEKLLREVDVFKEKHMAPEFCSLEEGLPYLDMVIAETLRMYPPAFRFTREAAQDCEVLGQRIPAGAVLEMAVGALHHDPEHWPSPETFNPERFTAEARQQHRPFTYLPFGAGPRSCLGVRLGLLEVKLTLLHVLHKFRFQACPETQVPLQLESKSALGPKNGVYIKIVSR
Method: as §1
According to the method described in Journal of Biological Chemistry, vol. 252, page 5871 (1977), thromboxane was produced by incubating human platelet microsomes with 4.3 μM ^14 C-arachidonic acid at 25° C. for 5 minutes. Since thromboxane A2 is extremely short-lived, thromboxane B2, which is a stable degradation product of thromboxane A2, was assayed. The incubation mixture was extracted with ethyl acetate, and thromboxane B2 was separated on a thin-layer chromatogram. The zone of thromboxane B2 on a silica gel plate was detected with a radiochromatoscanner and scraped off. The radioactivities were determined with a liquid scintilation counter.
The inhibitory activities of test compounds on thromboxane synthetase were assessed by comparing the contents of thromboxane formed in the presence and the absence of test compounds.

[4] = Acute toxicity (oral LD50); conditions: rat, in vivo, p.o., six male Wistar rats
Method: According to the method described in Journal of Pharmacological and Experimental Therapeutics, vol. 96, page 99 (1949), the test compounds were orally administered to a group consisting of six male Wistar rats. The 50% lethal doses (LD50, mg/kg) were determined.

[5] = target: T3, prostacyclin synthetase (Rattus norvegicus, UniProt Q62969); assay: Inhibitory effect on prostacyclin synthetase; type: biochemical; conditions: in vitro; rat aorta ring; 1.7 μM 14C-arachidonic acid, 37° C., 20 minutes; read-out: Inhibitory effect on prostacyclin synthetase (50% inhibitory molar concentration)
T3 construct: incubating the rat arota ring; from tissue; host or cells: rat aorta ring
T3 sequence (Q62969 1-501): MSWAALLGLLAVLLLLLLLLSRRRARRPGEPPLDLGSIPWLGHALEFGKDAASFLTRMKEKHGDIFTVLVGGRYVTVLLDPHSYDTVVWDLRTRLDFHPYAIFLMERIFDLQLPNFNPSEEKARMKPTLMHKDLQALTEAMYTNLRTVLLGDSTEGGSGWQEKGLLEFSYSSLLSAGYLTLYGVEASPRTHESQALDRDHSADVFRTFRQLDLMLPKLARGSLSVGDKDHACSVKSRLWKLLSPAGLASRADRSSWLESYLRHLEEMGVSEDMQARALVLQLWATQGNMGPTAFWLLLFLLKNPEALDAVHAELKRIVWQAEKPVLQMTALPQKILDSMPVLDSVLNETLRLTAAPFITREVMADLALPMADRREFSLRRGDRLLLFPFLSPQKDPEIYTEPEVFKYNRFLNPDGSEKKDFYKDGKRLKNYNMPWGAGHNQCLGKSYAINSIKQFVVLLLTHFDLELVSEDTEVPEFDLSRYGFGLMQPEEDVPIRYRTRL
Method: as §1
According to the method described in Journal of Pharmacology and Experimental Therapeutics, vol. 215, page 240 (1980), prostacyclin was formed by incubating the rat arota ring with 1.7 μM ^14 C-arachidonic acid at 37° C. for 20 minutes. Since prostacyclin is extremely short-lived, 6-keto-prostaglandin F1α, which is a stable degradation product of prostacyclin, was separated and assayed using the same method as (a).
The inhibitory activities of test compounds on prostacyclin synthetase were assessed by comparing the contents of 6-keto-prostaglandin F1α formed in the presence and the absence of test compounds.

| Structure (SMILES) | inhibition at 10 mg/kg [1] | IC50 [2] | IC50 [3] | LD50 [4] | IC50 [5] |
| --- | --- | --- | --- | --- | --- |
| Cc1cc(C(=O)O)cc(C)c1C(O)c1cc(-n2ccnc2)ccc1Cl (stereo not drawn) [α-(2,6-dimethyl-4-carboxyphenyl)-2-chloro-5-(1-imidazolyl)benzenemethanol] | 100% | > 100 µM | 0.052 µM | > 1000 mg/kg | > 100 µM |
| CCOC(=O)c1cc(C)c(C(O)c2cc(-n3ccnc3)ccc2C)c(C)c1 (stereo not drawn) [α-(2,6-dimethyl-4-ethoxycarbonylphenyl)-2-methyl-5-(1-imidazolyl)benzenemethanol] | 100% | > 100 µM |  | > 1000 mg/kg | > 100 µM |
| Cc1ccc(-n2ccnc2)cc1C(O)c1c(C)cc(C(=O)OC(C)C)cc1C (stereo not drawn) [α-(2,6-dimethyl-4-isopropoxycarbonylphenyl)-2-methyl-5-(1-imidazolyl)benzenemethanol] | 76% | > 100 µM |  | > 1000 mg/kg | > 100 µM |
| COC(=O)c1cc(C)c(C(O)c2cc(-n3ccnc3)ccc2C)c(C)c1 (stereo not drawn) [α-(2,6-dimethyl-4-methoxycarbonylphenyl)-2-methyl-5-(1-imidazolyl)benzenemethanol] | 100% | > 100 µM | 0.7 µM | > 1000 mg/kg | > 100 µM |
| Cc1cc(C)c(C(O)c2cccc(-n3ccnc3)c2C)c(C)c1 (stereo not drawn) [α-(2,4,6-Trimethylphenyl)-2-methyl-3-(1-imidazolyl)benzenemethanol] | 68% |  |  | > 1000 mg/kg |  |
| Cc1cc(C)c(C(O)c2cc(-n3ccnc3)ccc2C)c(C)c1 (stereo not drawn) [α-(2,4,6-trimethylphenyl)-2-methyl-5-(1-imidazolyl)benzenemethanol] | 100% |  | 0.82 µM | > 1000 mg/kg |  |
| Cc1cc(C)c(C(O)c2cccc(-n3ccnc3)c2)c(C)c1 (stereo not drawn) [α-(2,4,6-trimethylphenyl)-3-(1-imidazolyl)benzenemethanol] | 100% | > 1000 µM | 0.34 µM | > 1000 mg/kg | > 100 µM |
| Cc1cc(C)c(C(O)c2ccc(C)c(-n3ccnc3)c2)c(C)c1 (stereo not drawn) [α-(2,4,6-Trimethylphenyl)-4-methyl-3-(1-imidazolyl)benzenemethanol] | 88% |  |  | > 1000 mg/kg |  |
| Cc1ccc(-n2ccnc2)cc1C(O)c1c(C)cc(C(=O)O)cc1C (stereo not drawn) [α-(2,6-dimethyl-4-carboxyphenyl)-2-methyl-5-(1-imidazolyl)benzenemethanol] | 100% | > 100 µM | 0.022 µM | > 1000 mg/kg | > 100 µM |
| Cc1cc(C)c(C(O)c2ccc(-n3ccnc3)c(Cl)c2)c(C)c1 (stereo not drawn) [α-(2,4,6-trimethylphenyl)-3-chloro-4-(1-imidazolyl)benzenemethanol] | 80% | > 100 µM | 0.18 µM | > 1000 mg/kg | > 100 µM |
| Cc1cc(C)c(C(O)c2cc(-n3ccnc3)ccc2Cl)c(C)c1 (stereo not drawn) [α-(2,4,6-trimethylphenyl)-2-chloro-5-(1-imidazolyl) benzenemethanol] | 71% | > 1000 µM | 2.3 µM | > 1000 mg/kg | > 1000 µM |
